Test results from patent publication US8921307B2, “Synthetic linear apelin mimetics for the treatment of heart failure” (priority 2012, dated 2014).
Where two headings read alike, the source gives them in different places. Where a SMILES comes first, the peptide text is derived from it. [ ]: non-standard residue; d: D form. The star is where a group is joined. Phe(3,4-Cl2) = N[C@@H](Cc1ccc(Cl)c(Cl)c1)C(=O)O; 2Nal = N[C@@H](Cc1ccc2ccccc2c1)C(=O)O; dTic = O=C(O)[C@H]1Cc2ccccc2CN1; Cha = N[C@@H](CC1CCCCC1)C(=O)O; pGlu = O=C1CC[C@@H](C(=O)O)N1; dNle = CCCC[C@@H](N)C(=O)O; Nle = CCCC[C@H](N)C(=O)O; Bn = c1ccc(C*)cc1

Legend:
hAPJ = molecular target: T1, hAPJ (Homo sapiens, UniProt P35414); test: hAPJ Calcium Flux Assay; type: cell-based
T1 sequence (P35414 1-380): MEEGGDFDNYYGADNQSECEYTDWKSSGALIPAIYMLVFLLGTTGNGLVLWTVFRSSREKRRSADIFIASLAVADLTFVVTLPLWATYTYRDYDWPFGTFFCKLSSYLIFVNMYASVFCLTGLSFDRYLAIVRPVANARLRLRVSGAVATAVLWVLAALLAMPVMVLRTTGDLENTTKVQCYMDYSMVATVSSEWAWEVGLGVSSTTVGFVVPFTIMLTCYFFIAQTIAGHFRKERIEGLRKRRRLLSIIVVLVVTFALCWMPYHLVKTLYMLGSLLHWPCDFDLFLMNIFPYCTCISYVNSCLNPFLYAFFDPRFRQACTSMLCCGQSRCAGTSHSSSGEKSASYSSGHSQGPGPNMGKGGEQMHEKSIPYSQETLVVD
Protocol: Chem-5 APJ stable cells (Millipore # HTS068C) were plated in 384-well format with 10,000 cells/well in 25 ul growth media, then grown 24 hours in a 37° C. tissue culture incubator. One hour before the assay, 25 ul/well FLIPR Calcium 4 dye (Molecular Devices R8142) with 2.5 mM probenecid was added, and cells were incubated one hour in a 37° C. tissue culture incubator. Peptides were solubilized in HBSS, HEPES & 0.1% BSA buffer, and serially-diluted 10-fold, from 50 uM to […], in triplicate. FLIPR Tetra was used to add peptide to the cells with dye (1:5, for final peptide concentrations ranging from 10 uM to […]). FLIPR dye inside the cells emitted fluorescence after binding to calcium, while fluorescence from outside the cells was masked. Fluorescence was measured using 470-495 excitation and 515-575 emission wavelengths on the FLIPR Tetra. Readings were done for 3 minutes total, beginning 10 seconds before the peptide addition. Maximum-minimum values were calculated and plotted for each peptide concentration, and GraphPad prism software was used to calculate EC50 values at the curve inflection points, for calcium flux stimulation by peptides.

[1] = Surrogate Activity-Based Plasma Stability Assay; type: in vitro ADME; details: rat
Protocol: Stability half-life was then calculated by the formula, t½=0.693÷k Surrogate Activity-Based Plasma Stability Assay: […]
2) Calculate slope of value above and […]

[2] = Chem-5 APJ stable cells, FLIPR calcium flux stimulation, read-out: hAPJ Ca^2+ Flux EC50
[3] = Surrogate activity-based Plasma stability t½

| SMILES | EC50 (hAPJ; [2]) | half-life [1, 3] | EC50 (hAPJ) | half-life ([1]; read-out: Surrogate activity-based Plasma stability t½) |
| --- | --- | --- | --- | --- |
| CCCC[C@@H](NC(=O)[C@@H]1CCCN1C(=O)CNC(=O)[C@H](CCCCN)NC(=O)[C@H](Cc1c[nH]cn1)NC(=O)[C@@H](C)NC(=O)[C@H](CC(C)C)NC(=O)[C@H](CCCNC(=N)N)NC(=O)[C@@H]1CCCN1C(=O)[C@H](CCCNC(=N)N)NC(=O)[C@@H]1CCC(=O)N1)C(=O)N[C@@H](Cc1ccccc1)C(=O)O [Example 18, pE-R-P-R-L-a-H-K-G-P-nle-F-OH] ([pGlu]RPRL[dA]HKGP[dNle]F-OH) | 66.5 nM | 2.04 h |  |  |
| CCCC[C@@H](NC(=O)[C@@H]1CCCN1C(=O)CNC(=O)[C@H](CCCCN)NC(=O)[C@H](Cc1c[nH]cn1)NC(=O)[C@@H](C)NC(=O)[C@H](CC(C)C)NC(=O)[C@H](CCCNC(=N)N)NC(=O)[C@@H]1CCCN1C(=O)[C@H](CCCNC(=N)N)NC(=O)[C@@H]1CCC(=O)N1)C(=O)N[C@H](CCC(=O)O)C(=O)N[C@H](Cc1ccccc1)C(=O)O [Example 19, pE-R-P-R-L-a-H-K-G-P-nle-e-f-OH] ([pGlu]RPRL[dA]HKGP[dNle][dE][dF]-OH) | 169 nM | > 16.7 h |  |  |
| CCCC[C@@H](NC(=O)[C@@H]1CCCN1C(=O)CNC(=O)[C@H](CCCCN)NC(=O)[C@H](Cc1c[nH]cn1)NC(=O)[C@@H](C)NC(=O)[C@H](CC(C)C)NC(=O)[C@H](CCCNC(=N)N)NC(=O)[C@@H]1CCCN1C(=O)[C@H](CCCNC(=N)N)NC(=O)[C@@H]1CCC(=O)N1)C(=O)N[C@H](CCCNC(=N)N)C(=O)N[C@H](Cc1ccccc1)C(=O)O [Example 20, pE-R-P-R-L-a-H-K-G-P-nle-r-f-OH] ([pGlu]RPRL[dA]HKGP[dNle][dR][dF]-OH) | 922 nM | > 16.7 h |  |  |
| CCCC[C@@H](NC(=O)[C@@H]1CCCN1C(=O)CNC(=O)[C@H](CCCCN)NC(=O)[C@H](Cc1c[nH]cn1)NC(=O)[C@@H](C)NC(=O)[C@H](CC(C)C)NC(=O)[C@H](CCCNC(=N)N)NC(=O)[C@@H]1CCCN1C(=O)[C@H](CCCNC(=N)N)NC(=O)[C@@H]1CCC(=O)N1)C(=O)N[C@H](C)C(=O)N[C@H](Cc1ccc(O)cc1)C(=O)O [Example 21, pE-R-P-R-L-a-H-K-G-P-nle-a-y-OH] ([pGlu]RPRL[dA]HKGP[dNle][dA][dY]-OH) | 0.9 nM | > 16.7 h |  |  |
| CCCC[C@@H](NC(=O)[C@@H]1CCCN1C(=O)CNC(=O)[C@H](CCCCN)NC(=O)[C@H](Cc1c[nH]cn1)NC(=O)[C@@H](C)NC(=O)[C@H](CC(C)C)NC(=O)[C@H](CCCNC(=N)N)NC(=O)[C@@H]1CCCN1C(=O)[C@H](CCCNC(=N)N)NC(=O)[C@@H]1CCC(=O)N1)C(=O)N[C@H](C)C(=O)N[C@H](CC(=O)O)C(=O)O [Example 22, pE-R-P-R-L-a-H-K-G-P-nle-a-d-OH] ([pGlu]RPRL[dA]HKGP[dNle][dA][dD]-OH) | 86.8 nM | > 16.7 h |  |  |
| CCCC[C@@H](NC(=O)[C@@H]1CCCN1C(=O)CNC(=O)[C@H](CCCCN)NC(=O)[C@H](Cc1c[nH]cn1)NC(=O)[C@@H](C)NC(=O)[C@H](CC1CCCCC1)NC(=O)[C@H](CCCNC(=N)N)NC(=O)[C@@H]1CCCN1C(=O)[C@H](CCCNC(=N)N)NC(=O)[C@@H]1CCC(=O)N1)C(=O)N[C@H](C)C(=O)N[C@H](Cc1ccccc1)C(=O)O [Example 23, pE-R-P-R-Cha-a-H-K-G-P-nle-a-f-OH] ([pGlu]RPR[Cha][dA]HKGP[dNle][dA][dF]-OH) | 2.8 nM | 2.08 h |  |  |
| CCCC[C@@H](NC(=O)[C@@H]1CCCN1C(=O)CNC(=O)[C@H](CCCCN)NC(=O)[C@H](Cc1c[nH]cn1)NC(=O)[C@@H](C)NC(=O)[C@H](Cc1ccc(Cl)c(Cl)c1)NC(=O)[C@H](CCCNC(=N)N)NC(=O)[C@@H]1CCCN1C(=O)[C@H](CCCNC(=N)N)NC(=O)[C@@H]1CCC(=O)N1)C(=O)N[C@H](C)C(=O)N[C@H](Cc1ccccc1)C(=O)O [Example 24, pE-R-P-R-(3,4-Cl2-F)-a-H-K-G-P-nle-a-f-OH] ([pGlu]RPR[Phe(3,4-Cl2)][dA]HKGP[dNle][dA][dF]-OH) | 13.8 nM | 0.958 h |  |  |
| CCCC[C@@H](NC(=O)[C@@H]1CCCN1C(=O)CNC(=O)[C@H](CCCCN)NC(=O)[C@H](Cc1c[nH]cn1)NC(=O)[C@@H](C)NC(=O)[C@H](Cc1ccc2ccccc2c1)NC(=O)[C@H](CCCNC(=N)N)NC(=O)[C@@H]1CCCN1C(=O)[C@H](CCCNC(=N)N)NC(=O)[C@@H]1CCC(=O)N1)C(=O)N[C@H](C)C(=O)N[C@H](Cc1ccccc1)C(=O)O [Example 25, pE-R-P-R-(2-Nal)-a-H-K-G-P-nle-a-f-OH] ([pGlu]RPR[2Nal][dA]HKGP[dNle][dA][dF]-OH) | 69.2 nM | 4.03 h |  |  |
| CCCC[C@@H](NC(=O)[C@@H]1CCCN1C(=O)CNC(=O)[C@H](CCCCN)NC(=O)[C@H](Cc1c[nH]cn1)NC(=O)[C@@H](C)NC(=O)[C@H](CC(C)C)NC(=O)[C@H](CCCNC(=N)N)NC(=O)[C@@H]1CCCN1C(=O)[C@H](CCCNC(=N)N)NC(=O)[C@@H]1CCC(=O)N1)C(=O)N[C@H](C)C(=O)N1Cc2ccccc2C[C@@H]1C(=O)O [Example 26, pE-R-P-R-L-a-H-K-G-P-nle-a-tic-OH] ([pGlu]RPRL[dA]HKGP[dNle][dA][dTic]-OH) | 1.7 nM | 16.4 h |  |  |
| CCCC[C@@H](NC(=O)[C@@H]1CCCN1C(=O)CNC(=O)[C@H](CCCCN)NC(=O)[C@H](Cc1c[nH]cn1)NC(=O)[C@@H](C)NC(=O)[C@H](Cc1ccc(OCc2ccccc2)cc1)NC(=O)[C@H](CCCNC(=N)N)NC(=O)[C@@H]1CCCN1C(=O)[C@H](CCCNC(=N)N)NC(=O)[C@@H]1CCC(=O)N1)C(=O)N[C@H](C)C(=O)N[C@H](Cc1ccccc1)C(=O)O [Example 27, pE-R-P-R-Y(Bzl)-a-H-K-G-P-nle-a-f-OH] ([pGlu]RPRY(Bn)[dA]HKGP[dNle][dA][dF]-OH) |  |  | 121 nM | 5.81 h |
| CCCC[C@@H](NC(=O)[C@@H]1CCCN1C(=O)CNC(=O)[C@H](CCCCN)NC(=O)[C@H](Cc1c[nH]cn1)NC(=O)[C@@H](C)NC(=O)[C@H](Cc1ccc(O)cc1)NC(=O)[C@H](CCCNC(=N)N)NC(=O)[C@@H]1CCCN1C(=O)[C@H](CCCNC(=N)N)NC(=O)[C@@H]1CCC(=O)N1)C(=O)N[C@H](C)C(=O)N[C@H](Cc1ccccc1)C(=O)O [Example 28, pE-R-P-R-Y-a-H-K-G-P-nle-a-f-OH] ([pGlu]RPRY[dA]HKGP[dNle][dA][dF]-OH) | 114 nM | > 16.7 h |  |  |
| CCCC[C@H](NC(=O)[C@@H]1CCCN1C(=O)CNC(=O)[C@@H](CCCCN)NC(=O)[C@H](Cc1c[nH]cn1)NC(=O)[C@@H](C)NC(=O)[C@H](CC(C)C)NC(=O)[C@H](CCCNC(=N)N)NC(=O)[C@@H]1CCCN1C(=O)[C@H](CCCNC(=N)N)NC(=O)[C@@H]1CCC(=O)N1)C(=O)N[C@H](C)C(=O)N[C@H](Cc1ccccc1)C(=O)O [Example 31, pE-R-P-R-L-a-H-k-G-P-Nle-a-f-OH] | 99 nM | 5.78 h |  |  |
| CCCC[C@@H](NC(=O)[C@@H]1CCCN1C(=O)CNC(=O)[C@H](CCCCN)NC(=O)[C@H](Cc1c[nH]cn1)NC(=O)[C@@H](C)NC(=O)[C@H](CC(C)C)NC(=O)[C@H](CCCNC(=N)N)NC(=O)[C@@H]1CCCN1C(=O)[C@H](CCCNC(=N)N)NC(=O)[C@@H]1CCC(=O)N1)C(=O)N[C@H](C)C(=O)N[C@H](Cc1ccccc1)C(N)=O [Example 33, pE-R-P-R-L-a-H-K-G-P-nle-a-f-NH2] | 14.8 nM | > 16.7 h |  |  |
| CCCC[C@H](NC(=O)[C@@H]1CCCN1C(=O)CNC(=O)[C@H](CCCCN)NC(=O)[C@H](Cc1c[nH]cn1)NC(=O)[C@@H](C)NC(=O)[C@H](CC(C)C)NC(=O)[C@H](CCCNC(=N)N)NC(=O)[C@@H]1CCCN1C(=O)[C@H](CCCNC(=N)N)NC(=O)[C@@H]1CCC(=O)N1)C(=O)N1CCC[C@H]1C(=O)N[C@H](Cc1ccccc1)C(=O)O [Example 34, pE-R-P-R-L-a-H-K-G-P-Nle-P-f-OH] ([pGlu]RPRL[dA]HKGP[Nle]P[dF]-OH) | 34.5 nM | 0.387 h |  |  |
| CCCC[C@H](NC(=O)[C@@H]1CCCN1C(=O)CNC(=O)[C@H](CCCCN)NC(=O)[C@H](Cc1c[nH]cn1)NC(=O)[C@@H](C)NC(=O)[C@H](CC(C)C)NC(=O)[C@H](CCCNC(=N)N)NC(=O)[C@@H]1CCCN1C(=O)[C@H](CCCNC(=N)N)NC(=O)[C@@H]1CCC(=O)N1)C(=O)N[C@H](Cc1ccccc1)C(=O)O [Example 35, pE-R-P-R-L-a-H-K-G-P-Nle-f-OH] | 10.7 nM | > 16.7 h |  |  |
| CCCC[C@@H](NC(=O)[C@@H]1CCCN1C(=O)CNC(=O)[C@H](CCCCN)NC(=O)[C@H](Cc1c[nH]cn1)NC(=O)[C@@H](C)NC(=O)[C@H](CC(C)C)NC(=O)[C@H](CCCNC(=N)N)NC(=O)[C@@H]1CCCN1C(=O)[C@H](CCCNC(=N)N)NC(=O)[C@@H]1CCC(=O)N1)C(=O)N[C@H](C)C(=O)NCCc1ccccc1 [Example 36, pE-R-P-R-L-a-H-K-G-P-nle-a-NH(Phenethyl)] | 16.2 nM | 2.02 h |  |  |
